These are literature values, as cited in patent US9949941B2, “GABA analog prodrug sustained release oral dosage forms” (XENOPORT, INC., priority 2004, dated 2018).

The conditions of data set [1]: dosed either orally or directly into the colon of a mammal.

For `CC(OC(=O)NCC1(CC(=O)O)CCCCC1)OC(=O)C(C)C` (stereo not drawn) [Compound (1), 1-{[(α-isobutanoyloxyethoxy)carbonyl]aminomethyl}-1-cyclohexane acetic acid], the bioavailability as gabapentin result in data set [1] was “high bioavailability”.

For the compound `NCC1(CC(=O)O)CCCCC1` [gabapentin], the “Tmax following administration of gabapentin alone” value (fasted and fed patients) is 2 to 4 h. The “typical Tmax of immediate release gabapentin” value (immediate release gabapentin) was 2 to 4 h.
